ChEMBL document CHEMBL1201862, “PubChem BioAssay data set” (2004)
Calls of active or inactive are those of the source. Rule as the data show it, for most assays here: actives have a measured EC50 and inactives only a lower limit.

What was measured:
[1] = blockers of HIV-1 ZM109 envelope-driven cell-cell fusion – HeLa effector, CEM target cells, luciferase, cherry-pick, dose response (AID 652058); type: functional, cell-based;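 also: luciferase signal from HIV-1 Env mediated cell-cell fusion of effector and target cells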
[2] = fluconazole-exposed Candida albicans growth modulators – fluorescence, retest, confirmation (AID 2467); type: functional, cell-based
[3] = Trypanosoma cruzi growth suppression in host cells – NIH3T3 host cells, beta-gal luminescence, confirmation (AID 2044); type: functional, cell-based;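 also: intracellular parasites grown in NIH/3T3 mouse fibroblasts as host cells; luminescent beta-galactosidase reporter signal from transgenic T. cruzi replicating inside host cells; inhibitors lower the luminescence signal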
[4] = NIH3T3 cell viability loss – ATP luminescence, mouse fibroblasts, counter-screen, dose response (AID 2010); type: functional, cell-based;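 also: cells exposed to compound for about 90 hours before reading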
[5] = NIH-3T3 fibroblast cytotoxicity, dose response, cytotoxicity control, cell-based, fluorescence, Alamar Blue, secondary assay (AID 2327); type: functional;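 also: NIH-3T3 mouse fibroblasts cultured with fluconazole at 8 µg/mL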
[6] = target: Nonstructural protein 1 (Influenza A virus, UniProt Q194T2); type: functional, Influenza A virus (A/California/07/2009(H1N1))
Chain of Nonstructural protein 1 (Q194T2 whole entry): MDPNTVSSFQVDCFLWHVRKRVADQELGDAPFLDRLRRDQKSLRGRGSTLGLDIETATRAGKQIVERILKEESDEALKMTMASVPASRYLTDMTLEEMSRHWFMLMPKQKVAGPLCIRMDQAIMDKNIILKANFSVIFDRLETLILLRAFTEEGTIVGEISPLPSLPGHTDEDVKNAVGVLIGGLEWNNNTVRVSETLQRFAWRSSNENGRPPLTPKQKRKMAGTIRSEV

[7] = target: Heat shock protein HSP 90-alpha (Homo sapiens, UniProt P07900); type: functional, organism-based
[8] = cells; type: functional, cell-based
[9] = cells; type: functional, cell-based; remark: listed apart in the source
[10] = target: T1, Protein RecA (Mycobacterium tuberculosis, UniProt P9WHJ3); assay: Fluorescence Cell-Free Homogeneous Dose Retest to Identify Inhibitors of RecA-Intein Splicing Activity. [Related pubchem assays (depositor defined):AID2097, AID2223, AID489010, AID492950]; type: functional
T1 sequence (P9WHJ3 whole entry): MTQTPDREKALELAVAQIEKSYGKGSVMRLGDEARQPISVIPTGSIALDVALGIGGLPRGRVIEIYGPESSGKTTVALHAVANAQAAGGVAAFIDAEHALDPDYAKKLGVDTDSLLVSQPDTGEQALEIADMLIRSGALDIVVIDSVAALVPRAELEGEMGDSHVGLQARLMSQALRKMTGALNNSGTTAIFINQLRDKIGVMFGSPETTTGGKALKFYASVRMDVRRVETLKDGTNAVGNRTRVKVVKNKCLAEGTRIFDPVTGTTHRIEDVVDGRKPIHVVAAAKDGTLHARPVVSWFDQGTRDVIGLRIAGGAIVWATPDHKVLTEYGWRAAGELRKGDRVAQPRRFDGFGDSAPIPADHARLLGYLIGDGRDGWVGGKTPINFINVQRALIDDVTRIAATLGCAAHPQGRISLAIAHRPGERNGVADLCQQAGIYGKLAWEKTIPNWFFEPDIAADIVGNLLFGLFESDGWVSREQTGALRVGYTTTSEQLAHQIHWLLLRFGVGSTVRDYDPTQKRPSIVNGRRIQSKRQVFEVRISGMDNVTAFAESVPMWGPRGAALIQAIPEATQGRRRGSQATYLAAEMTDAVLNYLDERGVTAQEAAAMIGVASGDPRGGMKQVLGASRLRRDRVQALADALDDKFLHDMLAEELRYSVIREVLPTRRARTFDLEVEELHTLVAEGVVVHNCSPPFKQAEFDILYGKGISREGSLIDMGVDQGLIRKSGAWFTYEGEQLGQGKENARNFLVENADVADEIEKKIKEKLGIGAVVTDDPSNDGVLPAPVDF

[11] = tested on: Streptococcus; assay: GAS UMAA2166 growth inhibition – luminescence, BacTiterGlo, counter-screen for streptokinase expression inhibitor project, dose response (AID 1915); type: functional, organism-based;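 also: potency for reduction of bacterial viability or growth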
[12] = target: T2, Streptokinase A (Streptococcus pyogenes serotype M1, UniProt P10520); assay: viability-normalized secreted streptokinase activity reduction – plasminogen activation absorbance, OD405, dose response (AID 1914); type: functional, Streptococcus pyogenes M1 GAS;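 also: secreted streptokinase activity via plasminogen activation per viability signal from cell pellet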
T2 sequence (P10520 whole entry): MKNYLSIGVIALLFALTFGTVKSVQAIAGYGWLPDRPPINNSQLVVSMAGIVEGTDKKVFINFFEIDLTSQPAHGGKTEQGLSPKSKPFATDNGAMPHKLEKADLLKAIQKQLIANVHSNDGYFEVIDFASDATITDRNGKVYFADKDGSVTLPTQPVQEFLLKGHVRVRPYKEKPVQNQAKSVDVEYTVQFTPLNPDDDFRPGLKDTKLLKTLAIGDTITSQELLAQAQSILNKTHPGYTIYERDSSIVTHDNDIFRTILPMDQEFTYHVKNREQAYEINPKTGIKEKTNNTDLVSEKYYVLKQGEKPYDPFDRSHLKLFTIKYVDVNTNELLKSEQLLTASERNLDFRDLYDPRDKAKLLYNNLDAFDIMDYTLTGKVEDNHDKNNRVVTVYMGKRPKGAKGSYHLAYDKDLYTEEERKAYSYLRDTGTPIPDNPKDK

[13] = target: T3, Replicative DNA helicase DnaB (Mycobacterium tuberculosis, UniProt P9WMR3); assay: DnaB intein splicing inhibitors, dose response, biochemical, cell-free fluorescence (AID 449749); type: functional
T3 sequence (P9WMR3 whole entry): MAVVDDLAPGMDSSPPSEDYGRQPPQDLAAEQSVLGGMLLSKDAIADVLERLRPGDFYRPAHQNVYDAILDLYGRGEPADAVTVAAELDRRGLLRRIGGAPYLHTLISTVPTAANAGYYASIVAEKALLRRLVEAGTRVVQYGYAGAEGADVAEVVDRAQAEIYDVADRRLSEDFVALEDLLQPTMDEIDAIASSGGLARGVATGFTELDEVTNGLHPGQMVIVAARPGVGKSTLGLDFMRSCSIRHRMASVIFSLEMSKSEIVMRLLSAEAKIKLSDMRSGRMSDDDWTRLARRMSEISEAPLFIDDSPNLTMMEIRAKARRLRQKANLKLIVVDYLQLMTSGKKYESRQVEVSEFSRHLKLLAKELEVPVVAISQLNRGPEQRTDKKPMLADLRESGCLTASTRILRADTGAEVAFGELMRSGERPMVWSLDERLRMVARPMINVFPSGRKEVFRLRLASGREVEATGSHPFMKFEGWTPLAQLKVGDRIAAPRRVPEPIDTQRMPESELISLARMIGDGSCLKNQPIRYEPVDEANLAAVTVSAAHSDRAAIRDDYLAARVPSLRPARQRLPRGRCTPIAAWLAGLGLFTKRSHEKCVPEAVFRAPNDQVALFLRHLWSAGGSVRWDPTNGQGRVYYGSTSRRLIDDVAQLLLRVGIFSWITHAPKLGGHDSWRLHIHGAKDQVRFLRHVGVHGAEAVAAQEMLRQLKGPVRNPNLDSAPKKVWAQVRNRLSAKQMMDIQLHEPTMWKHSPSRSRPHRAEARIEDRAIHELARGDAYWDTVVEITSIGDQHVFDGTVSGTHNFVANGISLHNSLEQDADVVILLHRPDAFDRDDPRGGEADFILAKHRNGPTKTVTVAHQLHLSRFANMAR

[14] = target: Genome polyprotein (dengue virus type 2, UniProt P29990); assay: flavivirus cap methylation enzyme inhibition – biochemical, confirmation dose response, primary screen (AID 588689); type: functional
Chain of Genome polyprotein (P29990 2492-3391 limits assumed): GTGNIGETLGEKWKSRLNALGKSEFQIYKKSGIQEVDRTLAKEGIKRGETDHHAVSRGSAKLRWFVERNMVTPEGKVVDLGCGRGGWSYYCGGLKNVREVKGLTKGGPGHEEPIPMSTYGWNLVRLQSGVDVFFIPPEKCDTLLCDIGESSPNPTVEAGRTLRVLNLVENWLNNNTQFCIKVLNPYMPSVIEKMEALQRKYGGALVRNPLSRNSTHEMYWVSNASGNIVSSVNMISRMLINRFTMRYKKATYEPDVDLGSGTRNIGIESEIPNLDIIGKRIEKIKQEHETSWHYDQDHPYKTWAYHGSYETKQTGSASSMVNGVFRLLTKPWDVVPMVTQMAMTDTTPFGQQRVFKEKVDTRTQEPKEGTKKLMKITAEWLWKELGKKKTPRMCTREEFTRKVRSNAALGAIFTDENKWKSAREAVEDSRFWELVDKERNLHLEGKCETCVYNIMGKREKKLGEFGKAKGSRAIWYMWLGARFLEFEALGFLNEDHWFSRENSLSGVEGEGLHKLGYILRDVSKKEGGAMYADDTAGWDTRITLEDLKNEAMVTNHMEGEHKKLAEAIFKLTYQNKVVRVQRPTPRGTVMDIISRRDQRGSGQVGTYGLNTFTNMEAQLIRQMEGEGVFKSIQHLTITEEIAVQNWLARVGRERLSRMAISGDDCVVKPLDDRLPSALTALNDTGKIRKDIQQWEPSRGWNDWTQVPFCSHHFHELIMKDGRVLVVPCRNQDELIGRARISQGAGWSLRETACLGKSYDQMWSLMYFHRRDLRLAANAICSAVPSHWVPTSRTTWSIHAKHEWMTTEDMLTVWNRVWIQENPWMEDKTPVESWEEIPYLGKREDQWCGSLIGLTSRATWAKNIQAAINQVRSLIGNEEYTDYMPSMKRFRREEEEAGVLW

[15] = tested on: Streptococcus sp. 'group A'; assay: Streptococcus pyogenes SK(-)GAS viability under kanamycin – luminescence, BacTiterGlo, confirmation, counter-screen for streptokinase expression inhibitor project, dose response (AID 1900); type: functional, organism-based
[16] = target: Induced myeloid leukemia cell differentiation protein Mcl-1 (Homo sapiens, UniProt Q07820); type: functional
Chain of Induced myeloid leukemia cell differentiation protein Mcl-1 (Q07820 whole entry): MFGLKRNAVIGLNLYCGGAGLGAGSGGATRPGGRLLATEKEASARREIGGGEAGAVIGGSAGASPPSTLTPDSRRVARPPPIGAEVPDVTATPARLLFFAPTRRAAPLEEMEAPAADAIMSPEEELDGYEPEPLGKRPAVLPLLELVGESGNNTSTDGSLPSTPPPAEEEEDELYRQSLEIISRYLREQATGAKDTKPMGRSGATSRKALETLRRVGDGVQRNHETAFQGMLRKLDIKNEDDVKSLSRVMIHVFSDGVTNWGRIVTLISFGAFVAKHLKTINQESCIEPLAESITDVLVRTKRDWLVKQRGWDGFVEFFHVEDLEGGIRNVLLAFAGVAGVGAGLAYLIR

[17] = target: Large T antigen (Simian virus 40, UniProt P03070); type: functional, Betapolyomavirus macacae;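 also: Confirmatory-stage PubChem screen for compounds that inhibit SV40 T antigen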
Chain of Large T antigen (P03070 whole entry): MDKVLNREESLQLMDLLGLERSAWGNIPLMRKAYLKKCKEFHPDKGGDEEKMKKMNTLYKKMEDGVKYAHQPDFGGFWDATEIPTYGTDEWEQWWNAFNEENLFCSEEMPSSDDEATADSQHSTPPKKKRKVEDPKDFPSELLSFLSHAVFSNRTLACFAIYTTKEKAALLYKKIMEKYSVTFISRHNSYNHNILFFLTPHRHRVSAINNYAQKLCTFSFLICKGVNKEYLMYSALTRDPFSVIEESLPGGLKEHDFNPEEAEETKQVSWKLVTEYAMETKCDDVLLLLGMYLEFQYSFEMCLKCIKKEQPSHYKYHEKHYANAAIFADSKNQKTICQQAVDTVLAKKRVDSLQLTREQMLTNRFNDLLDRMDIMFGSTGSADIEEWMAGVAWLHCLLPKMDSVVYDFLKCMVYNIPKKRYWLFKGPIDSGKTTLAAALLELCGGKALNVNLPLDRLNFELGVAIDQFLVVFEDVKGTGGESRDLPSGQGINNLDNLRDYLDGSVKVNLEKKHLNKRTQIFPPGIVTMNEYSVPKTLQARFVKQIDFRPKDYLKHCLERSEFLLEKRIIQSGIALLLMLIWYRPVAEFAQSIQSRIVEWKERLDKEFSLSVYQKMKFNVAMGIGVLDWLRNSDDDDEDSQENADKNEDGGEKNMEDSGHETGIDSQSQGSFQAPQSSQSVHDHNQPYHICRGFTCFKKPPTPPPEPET

[18] = P. falciparum Dd2 growth inhibitors, dose response, SYBR Green, cherry-picked samples (AID 1159567); type: functional, cell-based

## O=C(C[C@@H]1C=C[C@@H](NC(=O)c2ccccc2)[C@H](CO)O1)NCc1ccc(Oc2ccccc2)cc1
[1]
  AC50: 38.2 µM (active)

## OCc1ccnc2c(O)cccc12
[2]
  EC50: > 38 µM (not active)
[3]
  EC50: 3.36 µM (active)
[4]
  EC50: > 30 µM (not active)
[5]
  EC50: 79.8 µM (active)
[6]
  IC50: 10.2 µM (active)

## Cc1ccc(Sc2ncccc2C(=O)NCc2cc([N+](=O)[O-])ccc2O)c(C)c1
[2]
  EC50: 1.73 µM (active)
[5]
  EC50: > 150 µM (inactive)

## O=C(O)c1cccc2c1Cc1cc(Cl)ccc1-2
[7]
  AC50: 0.723 µM (active)

## Cc1noc(NC(=O)c2ccc(Cl)c(Cl)c2)c1Cl
[2]
  EC50: 0.591 µM (active)
[5]
  EC50: > 150 µM (inactive)

## O=C(N/N=C/c1cccnc1)c1ccc(NC(=O)c2ccc(Cl)cc2)cc1
[8]
  EC50: > 350 µM (not active)
[9]
  EC50: > 350 µM (not active)

## Cc1nn(-c2ccccc2)c(Cl)c1/C=C1\SC(=S)N(CCCCCC(=O)O)C1=O
[10]
  EC50: 14.2 µM (active)
[11]
  EC50: 11.2 µM (active)
[12]
  EC50: 40.7 µM (inconclusive)
[13]
  AC50: 4.93 µM (active)
[14]
  IC50: 41.4 µM (active)
[15]
  EC50: 5.26 µM (active)

## CC(C)Cn1c(/C=N/Nc2nc3ccccc3[nH]2)nc2ccccc21
[8]
  EC50: 52.5 µM (active)
[9]
  EC50: > 350 µM (not active)

## CCN(CC)c1ccc(NC(=O)CCNC(=O)c2ccco2)cc1
[16]
  IC50: 9.57 µM (not active)
[17]
  IC50: 6.69 µM (active)

## O=C(C1CCCC1)N1CC[C@@H]2[C@H]1c1cc(C3=CCCCC3)ccc1N[C@@H]2CO
[18]
  AC50: 2.76 µM (active)
